Article PMC4177084 (Journal of Thyroid Research, 2014)

Key:
INSR = molecular target: T1, INSR (Homo sapiens, UniProt P06213); test: Cell free kinase inhibition assay; format: biochemical
T1 construct: purchased Carna Biosciences, Inc. (Kobe, Japan)

[1] = test system: CCDC-RET, human DTC TPC1 cell lines; details: cited from earlier work
TT cells = test: Antiproliferation assay (WST-8); format: cell-based; details: Homo sapiens, 240 h; TT (MTC), antiproliferative, 10 days; read-out: IC50
FTC-133 cells = test: Antiproliferation assay (WST-8); format: cell-based, human; details: Homo sapiens, 72 h; FTC-133 (DTC), antiproliferative, 3 days
PDGFRβ = molecular target: T2, PDGFRβ (Homo sapiens, UniProt P09619); test: Cell free kinase inhibition assay; format: biochemical
T2 construct: purchased Carna Biosciences, Inc. (Kobe, Japan)

PDGFRα(T674I) = molecular target: T3, PDGFRα(T674I) (Homo sapiens, UniProt P16234, T674I); test: Cell free kinase inhibition assay; format: biochemical
T3 construct: purchased Carna Biosciences, Inc. (Kobe, Japan)

FLT1/VEGFR1 = molecular target: T4, FLT1/VEGFR1 (Homo sapiens, UniProt P17948); test: Cell free kinase inhibition assay; format: biochemical
T4 construct: purchased Carna Biosciences, Inc. (Kobe, Japan)

RET = test: Western blot of RET phosphorylation in TT xenografts; details: 2 h after oral administration
RET (C634W) and ERK1/2 = test: Western blot of RET phosphorylation in TT cells; details: cultured TT cells, 1 h treatment
[2] = test system: FGFR1 and its downstream effectors (FRS2, MEK, ERK); test: Western blot of FGFR1 signaling in bFGF-stimulated RO82-W-1 cells; details: 1 h treatment, then bFGF 20 ng/mL and heparin 10 min
SYK = molecular target: T5, SYK (Homo sapiens, UniProt P43405); test: Cell free kinase inhibition assay; format: biochemical
T5 construct: purchased Carna Biosciences, Inc. (Kobe, Japan)

WEE1 = molecular target: T6, WEE1 (Homo sapiens, UniProt P30291); test: Cell free kinase inhibition assay; format: biochemical
T6 construct: purchased Carna Biosciences, Inc. (Kobe, Japan)
T6 sequence (P30291 whole entry): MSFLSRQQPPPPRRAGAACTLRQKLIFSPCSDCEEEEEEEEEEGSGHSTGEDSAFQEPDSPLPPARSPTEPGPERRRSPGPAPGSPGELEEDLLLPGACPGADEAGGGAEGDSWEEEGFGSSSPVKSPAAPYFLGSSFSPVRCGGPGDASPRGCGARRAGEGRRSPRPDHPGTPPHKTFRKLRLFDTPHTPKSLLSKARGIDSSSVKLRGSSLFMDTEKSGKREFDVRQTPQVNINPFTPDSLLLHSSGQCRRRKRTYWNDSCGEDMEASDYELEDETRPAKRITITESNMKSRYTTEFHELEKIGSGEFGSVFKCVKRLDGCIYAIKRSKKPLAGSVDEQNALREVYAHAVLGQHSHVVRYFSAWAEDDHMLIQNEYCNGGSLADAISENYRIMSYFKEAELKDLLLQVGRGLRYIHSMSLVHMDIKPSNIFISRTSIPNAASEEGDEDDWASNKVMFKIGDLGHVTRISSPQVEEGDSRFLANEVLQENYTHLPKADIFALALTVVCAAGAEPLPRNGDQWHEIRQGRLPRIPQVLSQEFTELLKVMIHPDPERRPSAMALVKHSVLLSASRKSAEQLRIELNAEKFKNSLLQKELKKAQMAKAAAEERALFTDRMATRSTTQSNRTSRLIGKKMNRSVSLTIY

VEGFR, FGFR, KIT, PDGFR = test: Cell free kinase inhibition assay, summary for RTKs; format: biochemical; details: PDGFR (Supplementary Table S1)
Protocol: (§1) […]. Briefly, each test compound was mixed with enzyme, substrate, ATP, and Mg under appropriate buffer conditions for the ELISA or MSA. […] IC50 values (the half maximal inhibitory concentration) were calculated from concentrations versus % inhibition curves.

SGK3 = molecular target: T7, SGK3 (Homo sapiens, UniProt Q96BR1); test: Cell free kinase inhibition assay; format: biochemical
T7 construct: purchased Carna Biosciences, Inc. (Kobe, Japan)
T7 sequence (Q96BR1 whole entry): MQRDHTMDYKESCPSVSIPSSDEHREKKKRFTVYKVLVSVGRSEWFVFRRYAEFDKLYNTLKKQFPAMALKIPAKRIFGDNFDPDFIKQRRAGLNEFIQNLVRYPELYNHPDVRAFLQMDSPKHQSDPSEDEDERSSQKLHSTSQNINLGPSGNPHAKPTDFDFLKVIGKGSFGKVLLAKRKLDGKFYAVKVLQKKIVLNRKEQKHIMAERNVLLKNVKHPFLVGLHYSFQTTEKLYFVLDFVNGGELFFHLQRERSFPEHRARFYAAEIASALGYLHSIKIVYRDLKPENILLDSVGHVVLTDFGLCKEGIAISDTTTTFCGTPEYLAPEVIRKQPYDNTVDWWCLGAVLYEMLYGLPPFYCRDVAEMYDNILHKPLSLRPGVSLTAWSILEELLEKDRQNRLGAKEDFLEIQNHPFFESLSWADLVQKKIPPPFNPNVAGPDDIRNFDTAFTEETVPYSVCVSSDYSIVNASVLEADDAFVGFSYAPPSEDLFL

KIT(D816V) = molecular target: T8, KIT(D816V) (Homo sapiens, UniProt P10721, D816V); test: Cell free kinase inhibition assay; format: biochemical
T8 construct: purchased Carna Biosciences, Inc. (Kobe, Japan)

EPHB2 = molecular target: T9, EPHB2 (Homo sapiens, UniProt P29323); test: Cell free kinase inhibition assay; format: biochemical
T9 construct: purchased Carna Biosciences, Inc. (Kobe, Japan)

FGFR1 = molecular target: T10, FGFR1 (Homo sapiens, UniProt P11362); test: Cell free kinase inhibition assay; format: biochemical
T10 construct: purchased Carna Biosciences, Inc. (Kobe, Japan)

NEK2 = molecular target: T11, NEK2 (Homo sapiens, UniProt P51955); test: Cell free kinase inhibition assay; format: biochemical
T11 construct: purchased Carna Biosciences, Inc. (Kobe, Japan)

CHK1 = molecular target: T12, CHK1 (Homo sapiens, UniProt O14757); test: Cell free kinase inhibition assay; format: biochemical
T12 construct: purchased Carna Biosciences, Inc. (Kobe, Japan)

CDK2/CycE1 = molecular target: T13, CDK2/CycE1 (Homo sapiens, UniProt P24941); test: Cell free kinase inhibition assay; format: biochemical
T13 construct: purchased Carna Biosciences, Inc. (Kobe, Japan)

COT = molecular target: T14, COT (Homo sapiens, UniProt P41279); test: Cell free kinase inhibition assay; format: biochemical
T14 construct: purchased Carna Biosciences, Inc. (Kobe, Japan)
Protocol: as §1

HTC/C3 cells = test: Antiproliferation assay (WST-8); format: cell-based; details: Homo sapiens, 72 h; HTC/C3 (ATC), antiproliferative, 3 days
Nthy-ori 3-1 cells = test: Antiproliferation assay (WST-8); format: cell-based, human; details: Homo sapiens, 72 h; Nthy-ori 3-1 (normal thyroid), antiproliferative, 3 days
EPHB4 = molecular target: T15, EPHB4 (Homo sapiens, UniProt P54760); test: Cell free kinase inhibition assay; format: biochemical
T15 construct: purchased Carna Biosciences, Inc. (Kobe, Japan)

K1 cells = test: Antiproliferation assay (WST-8); format: cell-based, human; details: Homo sapiens, 72 h; K1 (DTC), antiproliferative, 3 days
AKT1 = molecular target: T16, AKT1 (Homo sapiens, UniProt P31749); test: Cell free kinase inhibition assay; format: biochemical
T16 construct: purchased Carna Biosciences, Inc. (Kobe, Japan)

MLK1 = molecular target: T17, MLK1 (Homo sapiens, UniProt P80192); test: Cell free kinase inhibition assay; format: biochemical
T17 construct: purchased Carna Biosciences, Inc. (Kobe, Japan)
T17 sequence (P80192 whole entry): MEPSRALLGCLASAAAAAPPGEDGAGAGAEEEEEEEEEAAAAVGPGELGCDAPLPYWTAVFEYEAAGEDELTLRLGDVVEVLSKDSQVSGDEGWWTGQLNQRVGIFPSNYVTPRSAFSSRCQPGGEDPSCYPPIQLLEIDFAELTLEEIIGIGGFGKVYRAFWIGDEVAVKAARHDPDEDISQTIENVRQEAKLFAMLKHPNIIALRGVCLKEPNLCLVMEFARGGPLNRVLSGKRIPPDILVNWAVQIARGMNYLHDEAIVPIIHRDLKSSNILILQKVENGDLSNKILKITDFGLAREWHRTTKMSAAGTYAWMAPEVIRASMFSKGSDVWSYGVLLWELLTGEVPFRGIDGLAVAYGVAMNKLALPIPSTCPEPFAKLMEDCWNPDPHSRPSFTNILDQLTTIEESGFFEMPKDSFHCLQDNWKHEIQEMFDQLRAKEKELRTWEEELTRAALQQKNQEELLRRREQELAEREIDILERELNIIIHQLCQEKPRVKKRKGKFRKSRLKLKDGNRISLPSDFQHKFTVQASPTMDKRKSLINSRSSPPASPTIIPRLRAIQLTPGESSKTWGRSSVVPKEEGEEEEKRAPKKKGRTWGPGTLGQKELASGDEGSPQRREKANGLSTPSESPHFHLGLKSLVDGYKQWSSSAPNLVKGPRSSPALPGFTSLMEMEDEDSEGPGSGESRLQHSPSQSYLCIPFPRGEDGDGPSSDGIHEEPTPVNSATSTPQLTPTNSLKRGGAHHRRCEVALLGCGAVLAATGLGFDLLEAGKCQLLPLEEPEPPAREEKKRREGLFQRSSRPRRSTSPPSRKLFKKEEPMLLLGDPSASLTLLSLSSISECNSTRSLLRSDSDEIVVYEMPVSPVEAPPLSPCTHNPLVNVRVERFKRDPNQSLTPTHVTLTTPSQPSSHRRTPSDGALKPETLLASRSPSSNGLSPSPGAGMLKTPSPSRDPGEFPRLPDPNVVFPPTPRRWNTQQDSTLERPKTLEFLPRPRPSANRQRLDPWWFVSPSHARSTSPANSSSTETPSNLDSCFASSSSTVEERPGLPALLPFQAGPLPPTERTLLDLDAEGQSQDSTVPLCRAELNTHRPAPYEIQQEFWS

IKKb = molecular target: T18, IKKb (Homo sapiens, UniProt O14920); test: Cell free kinase inhibition assay; format: biochemical
T18 construct: purchased Carna Biosciences, Inc. (Kobe, Japan)

HER2 = molecular target: T19, HER2 (Homo sapiens, UniProt P04626); test: Cell free kinase inhibition assay; format: biochemical
T19 construct: purchased Carna Biosciences, Inc. (Kobe, Japan)
T19 sequence (P04626 23-1255): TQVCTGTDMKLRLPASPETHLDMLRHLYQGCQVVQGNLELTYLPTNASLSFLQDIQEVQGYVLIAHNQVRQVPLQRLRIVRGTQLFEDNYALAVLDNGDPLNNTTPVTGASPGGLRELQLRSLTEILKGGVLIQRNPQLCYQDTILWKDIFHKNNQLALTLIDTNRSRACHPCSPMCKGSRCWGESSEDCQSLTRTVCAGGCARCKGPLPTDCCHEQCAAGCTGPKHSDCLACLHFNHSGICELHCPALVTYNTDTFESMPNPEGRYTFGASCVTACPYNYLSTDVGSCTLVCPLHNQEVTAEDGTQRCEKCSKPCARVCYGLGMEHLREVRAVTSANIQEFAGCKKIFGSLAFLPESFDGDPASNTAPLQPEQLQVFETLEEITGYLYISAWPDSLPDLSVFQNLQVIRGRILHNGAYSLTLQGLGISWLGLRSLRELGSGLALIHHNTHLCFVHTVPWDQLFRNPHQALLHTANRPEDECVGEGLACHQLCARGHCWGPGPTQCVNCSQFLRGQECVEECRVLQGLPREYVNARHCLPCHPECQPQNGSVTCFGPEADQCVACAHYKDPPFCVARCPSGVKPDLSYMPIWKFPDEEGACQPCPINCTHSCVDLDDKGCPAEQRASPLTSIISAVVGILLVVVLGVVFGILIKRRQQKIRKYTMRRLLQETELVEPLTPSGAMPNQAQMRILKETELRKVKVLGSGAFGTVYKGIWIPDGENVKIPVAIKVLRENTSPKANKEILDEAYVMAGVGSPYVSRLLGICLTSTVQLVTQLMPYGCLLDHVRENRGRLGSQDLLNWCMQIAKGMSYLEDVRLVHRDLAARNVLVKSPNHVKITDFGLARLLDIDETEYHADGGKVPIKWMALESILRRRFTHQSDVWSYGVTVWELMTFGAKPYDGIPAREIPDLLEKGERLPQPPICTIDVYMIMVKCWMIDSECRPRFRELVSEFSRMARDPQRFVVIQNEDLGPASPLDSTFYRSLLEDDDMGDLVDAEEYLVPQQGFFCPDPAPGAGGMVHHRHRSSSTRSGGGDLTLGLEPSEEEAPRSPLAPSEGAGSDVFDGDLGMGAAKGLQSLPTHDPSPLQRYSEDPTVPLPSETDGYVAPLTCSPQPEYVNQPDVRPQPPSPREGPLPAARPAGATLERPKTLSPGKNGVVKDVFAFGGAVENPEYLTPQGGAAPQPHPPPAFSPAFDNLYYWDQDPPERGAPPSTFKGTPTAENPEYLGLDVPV

KIT(V560G) = molecular target: T20, KIT(V560G) (Homo sapiens, UniProt P10721, V560G); test: Cell free kinase inhibition assay; format: biochemical
T20 construct: purchased Carna Biosciences, Inc. (Kobe, Japan)

TT xenograft = test: Human thyroid cancer xenograft model, tumor growth; format: in vivo, nude mice
Protocol: (§2) Nude mice (CAnN.Cg-Foxn1nu/CrlCrlj, female, 5-6 weeks old) were obtained from Charles River Laboratories Japan (Kanagawa, Japan). Mice were maintained under specific pathogen-free conditions and housed in barrier facilities on a 12 h light/dark cycle, with food and water ad libitum. All procedures using laboratory animals were done in accordance with all applicable institutional and government regulatory guidelines and policies and were performed in an animal facility accredited by the Center for Accreditation of Laboratory Animal Care of the Japan Health Sciences Foundation. Tumor cells were cultured in appropriate culture mediums. […] Then, 0.1-0.2 mL of the cell suspension was inoculated subcutaneously into the right flank region of each mouse. […] The tumor size was measured in two dimensions by using a caliper, and the volume was calculated by using the formula: tumor volume (mm^3) = 1/2 length (mm) × [width (mm)]^2. The change in tumor volume in the treated group relative to that in the control group was calculated according to the following formula: ΔT/C = (ΔT/ΔC) × 100%, where ΔT and ΔC are the change in tumor volume (i.e., growth) for the treated and vehicle control group, respectively. The percentage of tumor growth inhibition (%TGI) was calculated from the formula: [(1 − ΔT/ΔC) × 100].

K1 xenograft = test: Human thyroid cancer xenograft model, tumor growth; format: in vivo, nude mice; details: K1 xenograft, 1, 3, and 10 mg/kg oral once daily 14 days
Protocol: as §2

T1 sequence (P06213 28-1382): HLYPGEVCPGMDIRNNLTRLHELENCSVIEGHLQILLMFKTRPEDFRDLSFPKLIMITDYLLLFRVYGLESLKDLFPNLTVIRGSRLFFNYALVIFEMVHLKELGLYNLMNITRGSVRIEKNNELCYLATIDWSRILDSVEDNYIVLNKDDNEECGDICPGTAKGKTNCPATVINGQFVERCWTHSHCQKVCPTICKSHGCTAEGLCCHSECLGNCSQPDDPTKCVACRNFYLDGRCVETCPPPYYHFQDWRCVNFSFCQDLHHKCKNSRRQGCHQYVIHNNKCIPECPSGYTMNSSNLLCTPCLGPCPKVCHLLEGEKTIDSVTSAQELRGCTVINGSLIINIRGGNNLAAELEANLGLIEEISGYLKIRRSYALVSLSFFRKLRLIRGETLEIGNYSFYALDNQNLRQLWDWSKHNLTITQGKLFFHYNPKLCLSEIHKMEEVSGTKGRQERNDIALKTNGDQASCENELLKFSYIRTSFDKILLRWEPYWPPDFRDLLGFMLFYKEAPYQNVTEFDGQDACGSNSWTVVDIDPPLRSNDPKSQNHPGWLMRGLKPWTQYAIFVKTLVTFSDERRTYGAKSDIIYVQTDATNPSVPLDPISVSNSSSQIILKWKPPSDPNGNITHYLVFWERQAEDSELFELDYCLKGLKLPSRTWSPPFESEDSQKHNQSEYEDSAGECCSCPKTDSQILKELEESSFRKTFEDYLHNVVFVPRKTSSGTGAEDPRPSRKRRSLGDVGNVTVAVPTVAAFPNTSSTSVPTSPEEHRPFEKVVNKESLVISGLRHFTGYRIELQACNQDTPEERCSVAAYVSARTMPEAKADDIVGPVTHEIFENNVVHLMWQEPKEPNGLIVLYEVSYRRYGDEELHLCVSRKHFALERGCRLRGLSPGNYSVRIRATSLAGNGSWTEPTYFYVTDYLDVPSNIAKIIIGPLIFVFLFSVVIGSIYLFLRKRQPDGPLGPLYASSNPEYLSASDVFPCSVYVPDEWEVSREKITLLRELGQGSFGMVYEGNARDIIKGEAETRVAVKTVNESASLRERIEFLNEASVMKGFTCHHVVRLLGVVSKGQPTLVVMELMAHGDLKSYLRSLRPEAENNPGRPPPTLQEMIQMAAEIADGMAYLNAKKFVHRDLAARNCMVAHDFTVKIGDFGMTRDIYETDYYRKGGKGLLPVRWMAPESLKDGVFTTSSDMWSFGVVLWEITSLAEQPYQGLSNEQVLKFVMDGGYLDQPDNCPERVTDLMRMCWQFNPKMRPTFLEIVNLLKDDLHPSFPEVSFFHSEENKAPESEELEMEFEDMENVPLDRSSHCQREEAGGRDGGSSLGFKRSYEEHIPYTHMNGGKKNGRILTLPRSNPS

COc1cc2nccc(Oc3ccc(NC(=O)NC4CC4)c(Cl)c3)c2cc1C(N)=O [Lenvatinib, Lenvatinib mesilate]
IC50 (INSR): > 10 µM | phosphorylation of CCDC-RET, in vitro proliferation and in vivo tumor growth of TPC1 [1]: inhibits | IC50 (TT cells): 0.078 µM | IC50 (FTC-133 cells): 24 µM | IC50 (PDGFRβ): 0.16 µM | IC50 (PDGFRα(T674I)): 0.63 µM | IC50 (FLT1/VEGFR1): 0.0047 µM | RET phosphorylation (RET): inhibition of RET phosphorylation | phosphorylation of RET and of ERK1/2 (RET (C634W) and ERK1/2): inhibited | phosphorylation of FGFR1, FRS2, MEK, and ERK [2]: inhibited the phosphorylation of FGFR1 and of FRS2, MEK, and ERK, in a concentration-dependent manner | IC50 (SYK): 8.7 µM | IC50 (WEE1): > 10 µM | IC50 (VEGFR, FGFR, KIT, PDGFR): < 0.1 µM | IC50 (SGK3): > 10 µM | IC50 (KIT(D816V)): > 10 µM | IC50 (EPHB2): 0.66 µM | IC50 (FGFR1): 0.061 µM | IC50 (NEK2): > 10 µM | IC50 (CHK1): > 10 µM | IC50 (CDK2/CycE1): > 10 µM | IC50 (COT): > 10 µM | IC50 (HTC/C3 cells): 28 µM | IC50 (Nthy-ori 3-1 cells): 15 µM | IC50 (EPHB4): 4.6 µM | IC50 (K1 cells): 22 µM | IC50 (AKT1): > 10 µM | IC50 (MLK1): > 10 µM | IC50 (IKKb): > 10 µM | IC50 (HER2): > 10 µM | IC50 (KIT(V560G)): 0.00074 µM | tumor volume change (TT xenograft; TT xenografts, 100 mg/kg oral once daily 29 days): tumor shrinkage | in vivo tumor growth (TT xenograft; TT xenografts, 10, 30, and 100 mg/kg oral once daily 29 days): inhibited in vivo tumor growth of TT xenografts in a dose-dependent manner | antitumor activity (K1 xenograft): significant antitumor activity
